In ChEMBL document CHEMBL3352562, “(±)-Quassidines I and J, two pairs of cytotoxic bis-β-carboline alkaloid enantiomers from Picrasma quassioides” (J Nat Prod, 2015):

Experiments:
Assay type in all cases: functional, cell-based
[1] = Cytotoxicity against human MKN28 cells assessed as cell survival after 48 hrs by MTT assay; conditions: MKN-28, 48 h
B16 = test: Cytotoxicity against mouse B16 cells assessed as cell survival after 48 hrs by MTT assay; conditions: B16, 48 h
HeLa = test: Cytotoxicity against human HeLa cells assessed as cell survival after 48 hrs by MTT assay

Row | Compound | IC50 [1] [µM] | IC50 (B16) [µM] | IC50 (HeLa) [µM]
1 | COc1cccc2c1[nH]c1c3[n+](cc(OC)c12)[C@H](c1ncc(OC)c2c1[nH]c1ccccc12)CCC3 | 6.3 | 10.8 | 5.75
2 | COc1cccc2c1[nH]c1c3[n+](cc(OC)c12)[C@@H](c1ncc(OC)c2c1[nH]c1ccccc12)CCC3 | 12.3 | 15.4 | 10.5
3 | COc1cccc2c1[nH]c1c([C@@H]3CCCc4c5[nH]c6c(O)cccc6c5c(OC)c[n+]43)ncc(OC)c12 | 4.91 | 9.34 | 4.03
4 | COc1cccc2c1[nH]c1c([C@H]3CCCc4c5[nH]c6c(O)cccc6c5c(OC)c[n+]43)ncc(OC)c12 | 9.64 | 14.8 | 10.9
5 | O=c1[nH]cc(F)c(=O)[nH]1 [FLUOROURACIL] | 9.67 | 7.64 | 13.5
